Reference: ChEMBL document CHEMBL1909046, “DrugMatrix in vitro pharmacology data”

How the values were obtained:
[1] = molecular target: Beta-1 adrenergic receptor (Homo sapiens, UniProt P08588); assay: DRUGMATRIX: Adrenergic beta1 radioligand binding (ligand: [125I] Cyanopindolol); assay type: cell membranes, CHO-K1, Membrane; conditions: cho-k1; Not Active = under 50% inhibition at 10 µM
[2] = molecular target: Beta-2 adrenergic receptor (Homo sapiens, UniProt P07550); assay: DRUGMATRIX: Adrenergic beta2 radioligand binding (ligand: [3H] CGP-12177); assay type: cell membranes, Membrane; conditions: cho; Not Active = under 50% inhibition at 10 µM
Chain of Beta-2 adrenergic receptor (P07550 whole entry): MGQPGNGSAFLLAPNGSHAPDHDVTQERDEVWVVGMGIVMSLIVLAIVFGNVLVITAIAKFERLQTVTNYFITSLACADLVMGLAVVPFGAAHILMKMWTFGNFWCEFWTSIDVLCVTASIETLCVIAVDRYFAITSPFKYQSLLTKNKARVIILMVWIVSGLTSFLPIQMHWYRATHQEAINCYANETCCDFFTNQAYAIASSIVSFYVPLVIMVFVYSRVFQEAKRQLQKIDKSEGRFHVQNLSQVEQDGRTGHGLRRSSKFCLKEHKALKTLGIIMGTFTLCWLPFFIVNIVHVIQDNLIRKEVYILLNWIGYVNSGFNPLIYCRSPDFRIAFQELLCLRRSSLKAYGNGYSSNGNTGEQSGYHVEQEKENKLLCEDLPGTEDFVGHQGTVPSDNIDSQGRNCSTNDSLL

B2 bradykinin receptor = molecular target: T1, B2 bradykinin receptor (Homo sapiens, UniProt P30411); assay type: cell membranes, Membrane; conditions: chem-1; further: in other assays of this panel Not Active means under 50% inhibition at 10 µM
T1 sequence (P30411 whole entry): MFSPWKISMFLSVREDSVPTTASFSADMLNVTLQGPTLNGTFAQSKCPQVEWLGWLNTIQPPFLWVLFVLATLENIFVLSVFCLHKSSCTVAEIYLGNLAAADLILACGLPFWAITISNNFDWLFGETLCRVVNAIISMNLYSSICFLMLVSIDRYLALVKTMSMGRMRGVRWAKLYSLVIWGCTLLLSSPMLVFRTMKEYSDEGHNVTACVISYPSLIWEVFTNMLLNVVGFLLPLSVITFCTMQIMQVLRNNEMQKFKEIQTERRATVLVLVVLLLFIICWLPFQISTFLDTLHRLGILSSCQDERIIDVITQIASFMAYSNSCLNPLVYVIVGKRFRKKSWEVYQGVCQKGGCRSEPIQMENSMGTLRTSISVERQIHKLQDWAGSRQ

Calcitonin receptor = molecular target: T2, Calcitonin receptor (Homo sapiens, UniProt P30988); assay type: cell membranes, Membrane; conditions: t47d; further: in other assays of this panel Not Active means under 50% inhibition at 10 µM
T2 sequence (P30988 whole entry): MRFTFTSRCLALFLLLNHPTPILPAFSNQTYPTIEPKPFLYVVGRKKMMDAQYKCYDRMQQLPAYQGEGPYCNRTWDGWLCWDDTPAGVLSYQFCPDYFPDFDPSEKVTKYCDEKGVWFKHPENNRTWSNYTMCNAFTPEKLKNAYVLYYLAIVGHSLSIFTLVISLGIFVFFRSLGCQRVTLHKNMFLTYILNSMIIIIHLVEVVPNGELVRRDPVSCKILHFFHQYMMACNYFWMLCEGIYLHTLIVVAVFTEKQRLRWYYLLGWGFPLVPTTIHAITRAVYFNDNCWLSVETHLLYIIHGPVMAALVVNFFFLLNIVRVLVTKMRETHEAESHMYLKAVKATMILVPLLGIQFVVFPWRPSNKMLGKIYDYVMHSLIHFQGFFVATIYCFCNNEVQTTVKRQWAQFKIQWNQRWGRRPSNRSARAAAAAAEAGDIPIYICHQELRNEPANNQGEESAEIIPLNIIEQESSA

[3] = DRUGMATRIX: Calcium Channel Type L, Dihydropyridine radioligand binding (ligand: [3H] Nitrendipine); assay type: cell membranes, Rattus norvegicus, Wistar, Cerebral cortex, Membrane; conditions: Not Active = under 50% inhibition at 10 µM
[4] = DRUGMATRIX: Sigma2 radioligand binding (ligand: [3H] Ifenprodil); assay type: cell membranes, Rattus norvegicus, Wistar, Brain, Membrane; conditions: Not Active = under 50% inhibition at 10 µM
[5] = molecular target: C-C chemokine receptor type 2 (Homo sapiens, UniProt P41597); assay type: cell membranes, CHO-K1, Membrane; conditions: cho-k1; further: in other assays of this panel Not Active means under 50% inhibition at 10 µM
Chain of C-C chemokine receptor type 2 (P41597 whole entry): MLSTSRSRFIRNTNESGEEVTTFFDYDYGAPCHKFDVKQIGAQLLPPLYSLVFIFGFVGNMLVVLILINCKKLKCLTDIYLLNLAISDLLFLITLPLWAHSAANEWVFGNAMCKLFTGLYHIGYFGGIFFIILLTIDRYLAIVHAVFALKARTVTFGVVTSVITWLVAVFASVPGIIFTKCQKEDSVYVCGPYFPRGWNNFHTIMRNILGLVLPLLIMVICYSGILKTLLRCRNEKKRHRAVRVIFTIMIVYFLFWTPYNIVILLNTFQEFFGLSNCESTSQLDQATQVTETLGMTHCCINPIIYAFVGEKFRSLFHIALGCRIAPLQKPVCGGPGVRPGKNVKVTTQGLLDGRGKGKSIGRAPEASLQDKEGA

[6] = molecular target: T3, Cholecystokinin receptor type A (Homo sapiens, UniProt P32238); assay type: cell membranes, Membrane; conditions: 1321-n1; further: in other assays of this panel Not Active means under 50% inhibition at 10 µM
T3 sequence (P32238 whole entry): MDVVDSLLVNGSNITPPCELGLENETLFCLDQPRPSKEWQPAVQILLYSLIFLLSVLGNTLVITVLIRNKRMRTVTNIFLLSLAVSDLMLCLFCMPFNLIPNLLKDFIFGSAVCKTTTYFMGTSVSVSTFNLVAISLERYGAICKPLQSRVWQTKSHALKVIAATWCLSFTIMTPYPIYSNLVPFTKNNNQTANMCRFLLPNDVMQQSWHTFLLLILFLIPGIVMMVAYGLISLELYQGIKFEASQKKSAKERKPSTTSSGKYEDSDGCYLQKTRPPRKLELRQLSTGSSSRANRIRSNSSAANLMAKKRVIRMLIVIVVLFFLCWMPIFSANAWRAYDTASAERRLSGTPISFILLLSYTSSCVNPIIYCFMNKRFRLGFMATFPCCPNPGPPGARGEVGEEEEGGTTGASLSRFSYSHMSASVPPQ

[7] = DRUGMATRIX: GABAA, Muscimol, Central radioligand binding (ligand: [3H] Muscimol); assay type: cell membranes, Rattus norvegicus, Wistar, Brain, Membrane; conditions: Not Active = under 50% inhibition at 10 µM
[8] = DRUGMATRIX: GABAA, Flunitrazepam, Central radioligand binding (ligand: [3H] Flunitrazepam); assay type: cell membranes, Rattus norvegicus, Wistar, Brain, Membrane; conditions: Not Active = under 50% inhibition at 10 µM
[9] = DRUGMATRIX: Glutamate, NMDA, Phencyclidine radioligand binding (ligand: [3H] TCP); assay type: cell membranes, Rattus norvegicus, Wistar, Cerebral cortex, Membrane; conditions: Not Active = under 50% inhibition at 10 µM
[10] = DRUGMATRIX: Leukotriene, BLT (LTB4) radioligand binding (ligand: [3H]LTB4); assay type: cell membranes, Membrane; conditions: u-937; Not Active = under 50% inhibition at 10 µM
[11] = molecular target: T4, Muscarinic acetylcholine receptor M2 (Homo sapiens, UniProt P08172); assay type: cell membranes, CHO-K1, Membrane; conditions: cho-k1; further: in other assays of this panel Not Active means under 50% inhibition at 10 µM
T4 sequence (P08172 whole entry): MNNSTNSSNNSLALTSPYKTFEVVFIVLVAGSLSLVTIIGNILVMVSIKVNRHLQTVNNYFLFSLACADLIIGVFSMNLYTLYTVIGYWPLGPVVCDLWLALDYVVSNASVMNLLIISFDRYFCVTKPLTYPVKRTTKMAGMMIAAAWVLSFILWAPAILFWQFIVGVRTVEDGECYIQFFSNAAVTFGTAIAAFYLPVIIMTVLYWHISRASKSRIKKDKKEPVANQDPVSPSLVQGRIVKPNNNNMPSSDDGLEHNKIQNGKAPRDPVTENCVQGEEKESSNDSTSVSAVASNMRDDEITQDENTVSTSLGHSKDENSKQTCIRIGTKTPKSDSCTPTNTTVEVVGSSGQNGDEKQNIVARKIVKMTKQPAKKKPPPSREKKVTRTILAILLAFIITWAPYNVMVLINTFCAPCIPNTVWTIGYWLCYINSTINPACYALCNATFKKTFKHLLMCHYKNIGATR

[12] = molecular target: Kappa-type opioid receptor (Homo sapiens, UniProt P41145); assay: DRUGMATRIX: Opiate kappa (OP2, KOP) radioligand binding (ligand: [3H] Diprenorphine); assay type: cell membranes, HEK293, Membrane; conditions: hek293; Not Active = under 50% inhibition at 10 µM
Chain of Kappa-type opioid receptor (P41145 whole entry): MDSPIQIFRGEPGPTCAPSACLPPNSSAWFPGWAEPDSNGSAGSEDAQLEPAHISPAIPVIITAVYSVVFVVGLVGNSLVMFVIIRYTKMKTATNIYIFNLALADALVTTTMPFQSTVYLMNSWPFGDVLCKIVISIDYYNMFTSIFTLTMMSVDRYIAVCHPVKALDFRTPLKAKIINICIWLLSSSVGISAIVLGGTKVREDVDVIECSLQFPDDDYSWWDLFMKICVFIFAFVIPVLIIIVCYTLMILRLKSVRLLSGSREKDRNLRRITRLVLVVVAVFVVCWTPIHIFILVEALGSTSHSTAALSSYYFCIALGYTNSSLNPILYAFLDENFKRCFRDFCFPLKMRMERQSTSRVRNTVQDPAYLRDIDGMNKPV

[13] = DRUGMATRIX: Phorbol Ester radioligand binding (ligand: [3H] PDBu); assay type: cell membranes, Mus musculus, ICR, Brain, Membrane; conditions: Not Active = under 50% inhibition at 10 µM
[14] = molecular target: Tyrosine-protein kinase Lck (Homo sapiens, UniProt P06239); assay: DRUGMATRIX: Protein Tyrosine Kinase, LCK enzyme inhibition (substrate: Poly(Glu:Tyr)); assay type: cell-based, Insect cells; conditions: insect cells; Not Active = under 50% inhibition at 10 µM
Chain of Tyrosine-protein kinase Lck (P06239 whole entry): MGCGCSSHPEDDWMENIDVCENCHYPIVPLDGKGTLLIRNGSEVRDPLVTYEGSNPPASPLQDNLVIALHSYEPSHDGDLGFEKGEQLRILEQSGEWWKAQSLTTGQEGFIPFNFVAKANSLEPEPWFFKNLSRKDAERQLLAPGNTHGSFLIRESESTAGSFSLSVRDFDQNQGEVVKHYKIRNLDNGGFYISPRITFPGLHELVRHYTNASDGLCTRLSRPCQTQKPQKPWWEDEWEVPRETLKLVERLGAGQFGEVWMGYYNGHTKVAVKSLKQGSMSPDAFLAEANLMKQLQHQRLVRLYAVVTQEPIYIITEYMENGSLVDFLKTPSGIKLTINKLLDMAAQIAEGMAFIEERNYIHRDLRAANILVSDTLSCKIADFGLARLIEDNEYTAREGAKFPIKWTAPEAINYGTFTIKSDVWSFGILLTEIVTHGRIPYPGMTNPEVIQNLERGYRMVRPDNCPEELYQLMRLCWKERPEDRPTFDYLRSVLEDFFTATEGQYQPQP

Chain of Beta-1 adrenergic receptor (P08588 whole entry): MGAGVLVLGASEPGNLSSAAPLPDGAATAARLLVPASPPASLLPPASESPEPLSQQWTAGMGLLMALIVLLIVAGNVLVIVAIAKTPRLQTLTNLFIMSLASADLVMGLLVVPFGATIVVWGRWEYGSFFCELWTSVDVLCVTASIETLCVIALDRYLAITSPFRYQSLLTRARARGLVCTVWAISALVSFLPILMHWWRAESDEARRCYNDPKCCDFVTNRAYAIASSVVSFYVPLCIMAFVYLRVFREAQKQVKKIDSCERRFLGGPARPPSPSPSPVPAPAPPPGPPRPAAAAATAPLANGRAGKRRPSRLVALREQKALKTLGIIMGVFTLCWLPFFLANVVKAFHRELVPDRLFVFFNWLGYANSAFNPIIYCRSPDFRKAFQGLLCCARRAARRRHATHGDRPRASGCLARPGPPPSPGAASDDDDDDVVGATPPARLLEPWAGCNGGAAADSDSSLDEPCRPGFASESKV

Nc1ccc(S(=O)(=O)Nc2ccnn2-c2ccccc2)cc1 [SULFAPHENAZOLE]
Not Active: IC50 [1] | IC50 [2] | IC50 (B2 bradykinin receptor) | IC50 (Calcitonin receptor) | IC50 [3] | Ki [3] | IC50 [4] | Ki [4] | IC50 [5] | IC50 [6] | IC50 [7] | Ki [7] | IC50 [8] | Ki [8] | IC50 [9] | Ki [9] | IC50 [10] | Ki [10] | IC50 [11] | IC50 [12] | IC50 [13] | Ki [13] | IC50 [14]

C=CC[C@@H]1/C=C(\C)C[C@H](C)C[C@H](OC)[C@H]2O[C@@](O)(C(=O)C(=O)N3CCCC[C@H]3C(=O)O[C@H](/C(C)=C/[C@@H]3CC[C@@H](O)[C@H](OC)C3)[C@H](C)[C@@H](O)CC1=O)[C@H](C)C[C@@H]2OC [TACROLIMUS ANHYDROUS]
Not Active: IC50 [1] | IC50 [2] | IC50 (B2 bradykinin receptor) | IC50 (Calcitonin receptor) | IC50 [3] | Ki [3] | IC50 [4] | Ki [4] | IC50 [5] | IC50 [6] | IC50 [7] | Ki [7] | IC50 [8] | Ki [8] | IC50 [9] | Ki [9] | IC50 [10] | Ki [10] | IC50 [11] | IC50 [12] | IC50 [13] | Ki [13] | IC50 [14]

CC1CN(c2cc3c(cc2F)c(=O)c(C(=O)O)cn3-c2ccc(F)cc2F)CCN1 (configuration not stated) [TEMAFLOXACIN]
Not Active: IC50 [1] | IC50 [2] | IC50 (B2 bradykinin receptor) | IC50 (Calcitonin receptor) | IC50 [3] | Ki [3] | IC50 [4] | Ki [4] | IC50 [5] | IC50 [6] | IC50 [7] | Ki [7] | IC50 [8] | Ki [8] | IC50 [9] | Ki [9] | IC50 [10] | Ki [10] | IC50 [11] | IC50 [12] | IC50 [13] | Ki [13] | IC50 [14]

CN(C)[C@@H]1C(O)=C(C(N)=O)C(=O)[C@@]2(O)C(O)=C3C(=O)c4c(O)cccc4[C@@](C)(O)[C@H]3C[C@@H]12 [TETRACYCLINE]
Not Active: IC50 [1] | IC50 [2] | IC50 (B2 bradykinin receptor) | IC50 (Calcitonin receptor) | IC50 [3] | Ki [3] | IC50 [4] | Ki [4] | IC50 [5] | IC50 [6] | IC50 [7] | Ki [7] | IC50 [8] | Ki [8] | IC50 [9] | Ki [9] | IC50 [10] | Ki [10] | IC50 [11] | IC50 [12] | IC50 [13] | Ki [13] | IC50 [14]
